Test results from PMC9607246 (Pharmaceutics, 2022).
Values after ≈ are worked out from the molar mass of the structure shown. Where two headings read alike, the source gives them in different places.

What was measured:
[1] = test system: Pathogenic micro-organism (S. aureus, S. epidermidis, S. hominis, E. fecalis, S. sacrophyticus, S. lugdunensis); format: cell-based; conditions: e-test; median (IQR) of pathogens of the 46 patients (36/46 identified); mg/L
Procedure: Demographic (age, body weight and height), treatment (dose and co-administered medications) and clinical data (microbiological data, analytical and disease covariates) were collected at patient enrolment. Serum creatinine and serum albumin were measured on the day (if not available, the nearest day) of measurement of the drug concentration.

Staphylococcus aureus = conditions: total AUC, MIC equal to 1 mg/L, cited from earlier work
[2] = test system: creatine phosphokinase elevation; conditions: in vivo; cited from earlier work
Procedure: The probability of Cmin ≥24.3 mg/L at 24 h was calculated for each scenario.

[3] = excretion primarily by the kidneys; cited from earlier work
[4] = test system: plasma proteins (albumin and α-glycoprotein); conditions: cited from earlier work
[5] = Population pharmacokinetic model of daptomycin in patients with normal and impaired renal function (NONMEM)
Procedure: A prospective multi-center study in patients admitted to the General University Hospital of Castellón (Castellón, Spain) and the Arnau de Vilanova Hospital of Valencia (Valencia, Spain) was conducted. […] The exclusion criteria were patients with renal replacement therapy.
Five serial blood samples were collected from a peripheral vein from day 4 (steady state) at the pre-dose, 0.5, 1–2, 4–10 h after the infusion ended and before the next dose.
Precision and accuracy were assessed by performing replicate analysis of quality control samples against calibration standards. Intra- and inter-assay coefficients of the variation were always <10%.
All data analyses were performed based on the population approach with the software NONMEM® (Version 7.4; Icon Inc, PA, USA). The population PK parameters were estimated using the Stochastic Approximation of the Expectation Maximization and the Importance Sampling Estimation method. The Perl-Speaks-NONMEM program (version 4.8.1, Department of Pharmaceutical Biosciences, Uppsala University, Sweden) [33] and Pirana software (version 2.9.6, Pirana Software & Consulting BV) were used for model development and evaluation. Data processing and graphical analysis were conducted using R (version 4.0.0, http://cran.r-project.org, accessed on 14 April 2020) and R-Studio (version v2021.09.0+354).
(§1) This model assumes that Cbound is directly proportional to Cfree with no saturable mechanism. • Non-linear binding model with single site binding [38, 39]: (2) Ctotal=Cfree+Bmax·Cfree/(KD+Cfree) where Bmax (mg/L) represents the maximal binding capacity and KD (mg/L) is the equilibrium dissociation constant. • Non-linear binding model with multiple site binding [38, 40, 41] (3) Ctotal=Cfree+∑^ Bmax,i·Cfree/(KD,i+Cfree) where Bmax,i and KD,i represent the binding-dissociation parameters of the i th binding site of plasma proteins.
Inter-individual variability (IIV) associated with the PK model parameters was modeled exponentially, and the residual unexplained variability (RUV) was explored using the additive error model on the logarithmic scale. The significance of the non-diagonal elements of the Ω variance-covariance matrix was evaluated.
Once the base model was selected, a graphical exploration of the correlations between the PK parameters (when eta-shrinkage was less than 35%) [42] and covariates was performed. The continuous covariate included age, height, body weight, serum creatinine, creatinine clearance, and albumin. The categorical covariates were gender and statin co-administration. A numerical evaluation of the parameter-covariate relationship was performed manually in a univariate testing.
The model selection was based on the physiological and pharmacological rationale with the principle of parsimony [43]. A decrease in 3.84 points of the objective function value (OFV) provided by NONMEM® between two nested models differing in one parameter was considered significant at the 5% level, together with the visual inspection of the goodness of fit (GOF) [44] and normalized prediction distribution error (NPDE) plots [45].
A model evaluation [46, 47] was performed through prediction-corrected visual predictive checks (pc-VPC), [48] and a non-parametric bootstrap (n = 1000) was conducted to assess the statistical significance of the final parameter estimates.

[6] = non-parametric bootstrap n = 1000, median
[7] = population estimate, final model, unbound daptomycin, 46 patients

Description for human plasma proteins: as §1

With `CCCCCCCCCC(=O)N[C@@H](Cc1c[nH]c2ccccc12)C(=O)N[C@H](CC(N)=O)C(=O)N[C@@H](CC(=O)O)C(=O)N[C@@H]1C(=O)NCC(=O)N[C@@H](CCCN)C(=O)N[C@@H](CC(=O)O)C(=O)N[C@H](C)C(=O)N[C@@H](CC(=O)O)C(=O)NCC(=O)N[C@H](CO)C(=O)N[C@@H]([C@H](C)CC(=O)O)C(=O)N[C@@H](CC(=O)c2ccccc2N)C(=O)O[C@@H]1C` [daptomycin] the MIC micro-organism [1] was 0.5 (0.25, 0.5), the “Bmax (maximal binding capacity)” value (human plasma proteins; in vivo) was 160 mg/L and the “Bmax, bootstrap median” value (human plasma proteins; in vivo) was 157 mg/L. The “KD, bootstrap median” value (human plasma proteins; [6]) was 3.61 µg/mL (≈ 2.23 µM), the “KD (equilibrium dissociation constant)” value (human plasma proteins; population estimate, single-site non-linear binding model, estimated from total concentrations, no free concentrations measured) was 3.56 µg/mL (≈ 2.2 µM) and the “AUC with bactericidal effect” value (Staphylococcus aureus; ref 19) was 761 mg·h/L. The “AUC with bacteriostatic effect” value (Staphylococcus aureus; ref 19) was 465 mg·h/L, the “AUC with bactericidal effect” value (Staphylococcus aureus; ref 24, 51, 52) was 666 mg·h/L and the “trough level (Cmin) associated with a 50% probability of creatine phosphokinase elevation” value [2] was ≥ 24300 ng/mL. For the same molecule, the eliminated in urine [3] was 54–78%, the free fraction [4] was “around 10%” and the “reversibly bound to albumin and α-glycoprotein” value [4] was 90%. The “CL, bootstrap median” value [5, 6] was 7.01 L/h, the “Q, bootstrap median” value [5, 6] was 1.93 L/h and the “V1, bootstrap median” value [5, 6] was 0.97 L. The “Q (intercompartmental clearance)” value [5, 7] was 1.96 L/h and the “V1 (apparent volume of distribution of the unbound central compartment)” value [5, 7] was 0.95 L.
